Data published in patent publication US8648099B2 (Hoffmann-La Roche Inc., priority 2011, dated 2014).

Key:
ABCA1 protein = test: Detection of upregulation of ABCA1 protein in cells (ApoA-I binding, high content imaging); type: cell-based; conditions: THP-1 macrophage cells; for % increase of ABCA1 at 3 μM: compound at 3 μM, 24 hrs; for EC50: 24 hrs compound incubation, read-out: EC50 [μM] ABCA1 protein increasing efficacy
Experimental: The ability of compounds of the invention to increase the level of ABCA1 protein is determined in replicate cultures of THP-1 macrophage cells in 96-well microplates. Cells are plated at an initial density of 100,000 cells/well in 100 μl medium and differentiated to adherent macrophages with the addition of PMA (100 nM) for 68 hrs in 10% fetal bovine serum, 3 μl/L of b-mercaptoethanol, RPMI-1640 medium. Then, cells are incubated with RPMI-1640 medium containing 1% FCS, 25 μg/ml acetylated LDL, for 24 hours at 37° C. Following incubation with acetylated LDL, cells are washed twice with 50 μl PBS and incubated with 100 μl of RPMI-1640 medium containing the compound of interest solubilized in DMSO for an additional 24 hrs. The final DMSO concentration in presence of cells is maintained at 0.5%. ApoA-I binding assay using High Content Image Analysis is initiated by replacing with fresh medium, RPMI without Phenol Red, 0.2% BSA containing AlexaFluor®647 labeled ApoA-I for 2 h/37° C./5% CO2. Then, cells are fixed with 4% Formaldehyde in PBS (15 min, RT). Following Nuclei are stained with Hoechst solution (3 μM PBS) and Cytoplasm with Cell Mask Blue (2 μg/ml PBS), 15 min, RT. Finally the stained cells are fixed with a second round of formaldehyde treatment. Fixed stained cells are washed and kept in PBS at 4° C. and can be read immediately until one month after preparation.
The Alexa Fluor 647-labeled Apolipoprotein A-I (20 nM) was prepared as follows: Human recombinant Apolipoprotein A-I (ApoA-I) was exchanged to a buffer of 0.02 M NaHCO3 at pH 8.2 on an NAP desalting column (GE Healthcare) and brought to a concentration to 40 μM (1.13 mg/ml) by adjustment with the same buffer. The ApoA-I was fluorescently labeled by incubation with Alexa Fluor carboxylic acid succimidyl ester (Alexa Fluor 647, Invitrogen A-20006) at a 2:1 molar ratio (Alexa to ApoA-I) for 1 h under shaking at RT. The remaining unconjugated label was removed by buffer exchange to 0.02M NaHCO3 at pH 8.2.
Imaging and data collection were performed on an OPERA confocal microplate imaging reader using a 20× water immersion objective and UV360 or 405 laser to identify the cell nuclei and a 635 laser to identify the fluorescent ApoA-I. Eight fields of view are captured per well. Image capture and analysis was performed with the Acapella software. Background fluorescence detected in control wells without ApoA-I was subtracted.
Using XLfit3 program (ID Business Solutions Ltd. UK), the model 205 for Dose Response One Site is used to calculate the EC50 values. […] More particularly, the compounds of the present invention have EC50 values in a range of 0.1 μM to 3 μm.

human CB1 receptor = molecular target: T1, human CB1 receptor (Homo sapiens, UniProt P21554); test: CB1 receptor affinity ([3H]-CP-55,940 displacement, HEK cell membranes); type: binding; conditions: displacement of [3H]-CP-55,940 at 10 μM; read-out: CB1 receptor affinity [% inhibition @ 10 μM]
T1 construct: expressed in transfected cells; host or cells: human embryonic kidney (HEK) cells, Semliki Forest Virus system, membrane preparations
T1 sequence (P21554 whole entry): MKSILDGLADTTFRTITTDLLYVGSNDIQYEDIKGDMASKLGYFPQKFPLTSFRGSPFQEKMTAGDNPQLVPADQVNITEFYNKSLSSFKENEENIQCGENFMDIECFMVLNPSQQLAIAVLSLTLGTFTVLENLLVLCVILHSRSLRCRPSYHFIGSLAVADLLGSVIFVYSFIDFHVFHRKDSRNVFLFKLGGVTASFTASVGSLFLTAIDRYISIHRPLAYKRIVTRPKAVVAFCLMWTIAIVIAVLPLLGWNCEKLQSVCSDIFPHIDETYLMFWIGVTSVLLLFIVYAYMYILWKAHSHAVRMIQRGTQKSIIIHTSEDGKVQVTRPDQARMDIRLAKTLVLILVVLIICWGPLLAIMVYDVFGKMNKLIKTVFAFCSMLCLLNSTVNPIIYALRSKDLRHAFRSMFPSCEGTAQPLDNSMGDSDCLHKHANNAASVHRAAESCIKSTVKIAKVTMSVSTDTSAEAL
Experimental: (§1) The affinity of the compounds of the invention for cannabinoid receptors was determined using membrane preparations of human embryonic kidney (HEK) cells in which the human CB1 receptor is transiently transfected using a Semliki Forest Virus system in conjunction with [3H]-CP-55,940 as radioligand. After incubation of freshly prepared cell membrane preparation with the [^3H]-ligand, with or without addition of compounds of the invention, separation of bound and free ligand was performed by filtration over glass fiber filters. Radioactivity on the filter was measured by scintillation counting.
(§2) The ability of the compounds to displace the radioligand [^3H]-CP-55,940 was measured at a concentration of 10 μM and values provided as [% inhibition @ 10 μM] both for the CB1 and CB2 receptor assay, The lower % inhibition is, the lower the likelihood of side effects based on CB1 or CB2 receptor inhibition is.

human CB2 receptor = molecular target: T2, human CB2 receptor (Homo sapiens, UniProt P34972); test: CB2 receptor affinity ([3H]-CP-55,940 displacement, HEK cell membranes); type: binding; conditions: displacement of [3H]-CP-55,940 at 10 μM
T2 construct: expressed in transfected cells; host or cells: human embryonic kidney (HEK) cells, Semliki Forest Virus system, membrane preparations
T2 sequence (P34972 whole entry): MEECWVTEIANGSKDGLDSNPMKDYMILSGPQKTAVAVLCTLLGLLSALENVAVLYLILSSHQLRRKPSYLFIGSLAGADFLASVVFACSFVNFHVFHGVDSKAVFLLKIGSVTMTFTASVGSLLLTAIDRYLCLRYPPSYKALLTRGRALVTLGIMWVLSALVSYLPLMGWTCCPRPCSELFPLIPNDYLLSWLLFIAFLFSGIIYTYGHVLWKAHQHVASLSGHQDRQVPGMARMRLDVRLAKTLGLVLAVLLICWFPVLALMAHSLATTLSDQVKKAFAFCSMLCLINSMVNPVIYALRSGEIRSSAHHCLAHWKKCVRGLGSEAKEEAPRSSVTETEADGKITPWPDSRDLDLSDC
Experimental: as §1, with “cannabinoid CB2” for “cannabinoid”, “CB2” for “CB1”, “[^3H]-CP-55,940” for “[3H]-CP-55,940”
as §2

inhibition at 10 µM (human CB1 receptor) | inhibition at 10 µM (human CB2 receptor) | SMILES | % increase of ABCA1 at 3 μM (ABCA1 protein) | EC50 (ABCA1 protein)
28% | -9% | CN(NC(=O)c1cnc(OCC(F)(F)F)c(C2CCCCC2)c1)c1ccc(Cl)nn1 [Example 22, N′-(6-chloropyridazin-3-yl)-5-cyclohexyl-N′-methyl-6-(2,2,2-trifluoroethoxy)-3-pyridinecarboxylic acid hydrazide] |  | 0.98 µM
46% | -9% | CN(CCCO)NC(=O)c1cnc(OCC(F)(F)F)c(-c2ccc(Cl)cc2)c1 [Example 28, 5-(4-chlorophenyl)-N′-(3-hydroxypropyl)-N′-methyl-6-(2,2,2-trifluoroethoxy)-3-pyridinecarboxylic acid hydrazide] | >45%@ 3 μM | 
44% | -10% | O=C(NN1CC(O)C1)c1cnc(OCC(F)(F)F)c(-c2ccc(Cl)cc2)c1 [Example 29, 5-(4-chlorophenyl)-N-(3-hydroxyazetidin-1-yl)-6-(2,2,2-trifluoroethoxy)-3-pyridinecarboxamide] | >45%@ 3 μM | 
24% | 13% | CN(NC(=O)c1cnc(OCC(F)(F)F)c(C2CC2)c1)c1ccccc1 [Example 30, 5-cyclopropyl-6-(2,2,2-trifluoro-ethoxy)-nicotinic acid N′-methyl-N′-phenyl-hydrazide] | >45%@ 3 μM | 
-2% | -14% | O=C(NN1CCS(=O)(=O)CC1)c1cnc(OCC(F)(F)F)c(C2CC2)c1 [Example 31, 5-cyclopropyl-N-(1,1-dioxo-1λ6-thiomorpholin-4-yl)-6-(2,2,2-trifluoro-ethoxy)-nicotinamide] | >45%@ 3 μM | 
14% | -14% | O=C(NN1CCOCC1)c1cnc(OCC(F)(F)F)c(C2CC2)c1 [Example 32, 5-cyclopropyl-N-morpholin-4-yl-6-(2,2,2-trifluoro-ethoxy)-nicotinamide] |  | 1.77 µM
21% | 3% | COC[C@@H]1CCCN1NC(=O)c1cnc(OCC(F)(F)F)c(C2CC2)c1 [Example 33, 5-cyclopropyl-N—((S)-2-methoxymethyl-pyrrolidin-1-yl)-6-(2,2,2-trifluoro-ethoxy)-nicotinamide] |  | 0.68 µM
15% | 8% | CN(NC(=O)c1cnc(OCC(F)(F)F)c(C2CC2)c1)c1ccc(F)cc1 [Example 34, 5-cyclopropyl-6-(2,2,2-trifluoro-ethoxy)-nicotinic acid N′-(4-fluoro-phenyl)-N′-methyl-hydrazide] |  | 0.83 µM
34% | 25% | CN(NC(=O)c1cnc(OCC(F)(F)F)c(C2CCOCC2)c1)c1ccccc1 [Example 35, 5-(tetrahydro-pyran-4-yl)-6-(2,2,2-trifluoro-ethoxy)-nicotinic acid N′-methyl-N′-phenyl-hydrazide] |  | 2.35 µM
10% | -4% | N#Cc1ccc(-c2cc(C(=O)NN3CCC(O)CC3)cnc2OCC(F)(F)F)cc1 [Example 36, 5-(4-cyano-phenyl)-N-(4-hydroxy-piperidin-1-yl)-6-(2,2,2-trifluoro-ethoxy)-nicotinamide] |  | 1.86 µM
50% | 3% | CN(NC(=O)c1cnc(OCC(F)(F)F)c(C2CCN(C(=O)OC(C)(C)C)CC2)c1)c1ccc(F)cc1 [Example 40, 5-[N′-(4-fluoro-phenyl)-N′-methyl-hydrazinocarbonyl]-2-(2,2,2-trifluoro-ethoxy)-3′,4′,5′,6′-tetrahydro-2′H-[3,4′]bipyridinyl-1′-carboxylic acid tert-butyl ester] |  | 0.68 µM

The remaining lines, values behind:

SMILES | inhibition at 10 µM (human CB1 receptor) | inhibition at 10 µM (human CB2 receptor) | % increase of ABCA1 at 3 μM (ABCA1 protein) | EC50 (ABCA1 protein)
O=C(NN1CCCC1)c1cnc(OCC(F)(F)F)c(C2CCCCC2)c1 [Example 21, 5-cyclohexyl-N-(pyrrolidin-1-yl)-6-(2,2,2-trifluoroethoxy)-3-pyridinecarboxamide] | 39% | -17% | >45%@ 3 μM | 
COC[C@@H]1CCCN1NC(=O)c1cnc(OCC(F)(F)F)c(C2CCCCC2)c1 [Example 23, 5-cyclohexyl-N—((S)-2-methoxymethyl-pyrrolidin-1-yl)-6-(2,2,2-trifluoro-ethoxy)-3-pyridinecarboxamide] | 39% | 17% | >45%@ 3 μM | 
O=C(NN1CCC(CCO)CC1)c1cnc(OCC(F)(F)F)c(-c2ccc(Cl)cc2)c1 [Example 24, 5-(4-chlorophenyl)-N-(4-(2-hydroxyethyl)piperidin-1-yl)-6-(2,2,2-trifluoroethoxy)-3-pyridinecarboxamide] | 45% | -8% | >45%@ 3 μM | 
O=C(NN1CCN(CCO)CC1)c1cnc(OCC(F)(F)F)c(-c2ccc(Cl)cc2)c1 [Example 25, 5-(4-chlorophenyl)-N-(4-(2-hydroxyethyl)piperazin-1-yl)-6-(2,2,2-trifluoroethoxy)-3-pyridinecarboxamide] | 14% | -18% | >45%@ 3 μM | 
O=C(NN1CCC(CO)CC1)c1cnc(OCC(F)(F)F)c(-c2ccc(Cl)cc2)c1 [Example 26, 5-(4-chlorophenyl)-N-(4-(hydroxymethyl)piperidin-1-yl)-6-(2,2,2-trifluoroethoxy)-3-pyridinecarboxamide] | 37% | -17% | >45%@ 3 μM | 
CN1CCN(NC(=O)c2cnc(OCC(F)(F)F)c(-c3ccc(Cl)cc3)c2)CC1=O [Example 27, 5-(4-chlorophenyl)-N-(4-methyl-3-oxopiperazin-1-yl)-6-(2,2,2-trifluoroethoxy)-3-pyridinecarboxamide] | 25% | -11% |  | 2.39 µM
N#Cc1ccc(-c2cc(C(=O)NN3CCOCC3)cnc2OCC(F)(F)F)cc1 [Example 37, 5-(4-cyano-phenyl)-N-morpholin-4-yl-6-(2,2,2-trifluoro-ethoxy)-nicotinamide] | 47% | -8% |  | 1.32 µM
N#Cc1ccc(-c2cc(C(=O)NN3CCC(CCO)CC3)cnc2OCC(F)(F)F)cc1 [Example 38, 5-(4-cyano-phenyl)-N-[4-(2-hydroxy-ethyl)-piperidin-1-yl]-6-(2,2,2-trifluoro-ethoxy)-nicotinamide] | 37% | -6% |  | 0.15 µM
CC(C)(C)OC(=O)N1CCC(c2cc(C(=O)NN3CCC(CCO)CC3)cnc2OCC(F)(F)F)CC1 [Example 39, 5-[4-(2-hydroxy-ethyl)-piperidin-1-ylcarbamoyl]-2-(2,2,2-trifluoro-ethoxy)-3′,4′,5′,6′-tetrahydro-2′H-[3,4′]bipyridinyl-1′-carboxylic acid tert-butyl ester] | -3% | -5% |  | 1.8 µM
